We go through two molecules from BindingDB's records for patent US20230295166 (Antengene Discovery, 2023).

The structures appear in SMILES notation. pIC50: −log10 of the molar value.

In this assay the target is Serine/threonine-protein kinase ATR (Homo sapiens, UniProt Q13535). In words: ATR Inhibition Assay. As for the experimental part:
Detection of ATR kinase activity utilized the Mobility shift assay to measure the phosphorylation of the substrate protein FAM-RAD17 (GL, Cat. No. 514318, Lot. No. P19042-MJ524315). The assay was developed and conducted at Chempartner. All the test compounds were dissolved in 100% DMSO at concentration of 20 mM, then prepare compounds and conducted the assay as follows: 1) Transfer […] 20 mM compound to 40 μl of 100% DMSO in a 96-well plate.2) Serially dilute the compound by transferring 20 μl to 60 μl of 100% DMSO in the next well and so forth for a total of 10 concentrations.3) Add 100 μl of 100% DMSO to two empty wells for no compound control and no enzyme control in the same 96-well plate. Mark the plate as source plate.4) Transfer 40 μl of compound from source plate to a new 384-well plate as the intermediate plate.5) Transfer 60 nl compounds to assay plate by Echo.6) Add ATR kinase (Eurofins, Cat. No. 14-953, Lot. No. D14 JP007N) into Kinase base buffer (50 mM HEPES, pH 7.5; 0.0015% Brij-35; 0.01% Triton) to prepare 2 enzyme solution, then add 10 μl of 2 enzyme solution to each well of the 384-well assay plate, incubate at room temperature for 10 min.7) Add FAM-RAD17 and ATP (Sigma, Cat. No. A7699-1G, CAS No. 987-65-5) in the kinase base buffer to prepare 2 peptide solution, then add 10 μl to the assay plate.8) Incubate at 28 C. for specified period of time. […]

Sequence of Serine/threonine-protein kinase ATR (Q13535 whole entry): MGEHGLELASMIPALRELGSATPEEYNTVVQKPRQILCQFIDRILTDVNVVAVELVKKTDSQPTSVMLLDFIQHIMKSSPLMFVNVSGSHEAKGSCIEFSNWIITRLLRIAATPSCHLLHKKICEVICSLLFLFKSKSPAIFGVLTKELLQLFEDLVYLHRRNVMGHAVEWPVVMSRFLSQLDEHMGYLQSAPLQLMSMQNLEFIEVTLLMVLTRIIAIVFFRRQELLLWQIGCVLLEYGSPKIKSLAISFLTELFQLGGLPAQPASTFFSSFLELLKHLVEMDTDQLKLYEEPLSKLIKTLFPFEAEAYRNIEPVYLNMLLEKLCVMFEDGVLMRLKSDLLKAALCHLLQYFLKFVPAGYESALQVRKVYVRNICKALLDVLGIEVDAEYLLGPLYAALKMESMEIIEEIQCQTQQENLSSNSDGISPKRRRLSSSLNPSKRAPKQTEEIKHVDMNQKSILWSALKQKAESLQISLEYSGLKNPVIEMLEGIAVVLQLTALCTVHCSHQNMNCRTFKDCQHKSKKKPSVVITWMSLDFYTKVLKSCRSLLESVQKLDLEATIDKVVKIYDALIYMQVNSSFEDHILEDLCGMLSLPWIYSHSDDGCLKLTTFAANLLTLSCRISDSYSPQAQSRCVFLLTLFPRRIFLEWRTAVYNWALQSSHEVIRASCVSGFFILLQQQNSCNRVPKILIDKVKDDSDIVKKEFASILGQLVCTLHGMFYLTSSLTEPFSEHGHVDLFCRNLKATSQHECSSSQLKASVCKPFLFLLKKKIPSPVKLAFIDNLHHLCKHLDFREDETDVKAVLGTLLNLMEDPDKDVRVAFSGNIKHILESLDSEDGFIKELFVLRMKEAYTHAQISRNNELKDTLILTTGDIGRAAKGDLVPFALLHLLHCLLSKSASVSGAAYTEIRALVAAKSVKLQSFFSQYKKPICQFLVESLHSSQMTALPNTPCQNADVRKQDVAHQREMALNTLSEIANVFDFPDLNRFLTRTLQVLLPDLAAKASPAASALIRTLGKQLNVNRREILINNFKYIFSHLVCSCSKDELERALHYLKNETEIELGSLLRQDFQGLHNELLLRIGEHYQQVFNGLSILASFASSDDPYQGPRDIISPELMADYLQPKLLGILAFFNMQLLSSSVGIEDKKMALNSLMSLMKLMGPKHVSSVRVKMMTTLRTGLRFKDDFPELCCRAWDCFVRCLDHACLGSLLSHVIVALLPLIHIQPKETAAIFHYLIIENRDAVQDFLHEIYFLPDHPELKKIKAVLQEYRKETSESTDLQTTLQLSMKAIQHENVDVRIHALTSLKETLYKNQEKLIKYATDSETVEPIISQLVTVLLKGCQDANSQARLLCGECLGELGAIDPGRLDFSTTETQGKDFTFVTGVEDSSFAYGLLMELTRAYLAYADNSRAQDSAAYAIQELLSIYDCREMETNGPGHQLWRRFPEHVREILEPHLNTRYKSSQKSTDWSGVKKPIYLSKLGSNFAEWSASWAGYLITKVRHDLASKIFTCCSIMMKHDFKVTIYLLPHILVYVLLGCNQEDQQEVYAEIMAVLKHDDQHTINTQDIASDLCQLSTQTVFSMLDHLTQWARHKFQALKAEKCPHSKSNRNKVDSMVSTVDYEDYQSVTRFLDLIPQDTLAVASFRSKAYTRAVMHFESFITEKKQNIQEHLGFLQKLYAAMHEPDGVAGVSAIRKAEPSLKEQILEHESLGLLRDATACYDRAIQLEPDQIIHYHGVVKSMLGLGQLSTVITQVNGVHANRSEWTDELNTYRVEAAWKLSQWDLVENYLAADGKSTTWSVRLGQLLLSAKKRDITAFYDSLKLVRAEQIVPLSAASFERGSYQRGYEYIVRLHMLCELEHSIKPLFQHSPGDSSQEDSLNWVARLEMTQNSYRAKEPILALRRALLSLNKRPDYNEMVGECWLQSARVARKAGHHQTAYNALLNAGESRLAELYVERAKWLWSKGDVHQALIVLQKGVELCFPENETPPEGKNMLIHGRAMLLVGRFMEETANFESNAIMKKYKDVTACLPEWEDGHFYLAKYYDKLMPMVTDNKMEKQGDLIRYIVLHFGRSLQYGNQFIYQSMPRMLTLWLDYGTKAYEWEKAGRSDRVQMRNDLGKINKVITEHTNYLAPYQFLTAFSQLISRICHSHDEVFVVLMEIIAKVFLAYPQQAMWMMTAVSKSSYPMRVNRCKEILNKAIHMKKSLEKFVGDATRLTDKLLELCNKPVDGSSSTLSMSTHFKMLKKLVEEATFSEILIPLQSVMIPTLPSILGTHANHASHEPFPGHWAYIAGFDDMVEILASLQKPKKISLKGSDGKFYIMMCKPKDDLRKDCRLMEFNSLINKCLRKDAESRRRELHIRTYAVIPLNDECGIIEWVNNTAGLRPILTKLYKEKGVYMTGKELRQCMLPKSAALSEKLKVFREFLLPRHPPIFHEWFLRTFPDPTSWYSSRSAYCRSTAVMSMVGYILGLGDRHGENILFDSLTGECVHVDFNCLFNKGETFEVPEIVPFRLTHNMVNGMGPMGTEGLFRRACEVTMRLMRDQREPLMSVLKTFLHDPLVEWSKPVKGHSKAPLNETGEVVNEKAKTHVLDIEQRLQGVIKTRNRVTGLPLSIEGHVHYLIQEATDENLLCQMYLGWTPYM

What is called pIC50 is −log10 of the IC50, conventionally taken in molar units. Higher therefore signals a small IC50. `C[C@@H]1COCCN1c1cc(-c2ccnn2C)c2c(Cl)nc(-c3ccn[nH]3)n2n1` [US20230295166, Compound 61] gave a pIC50 of over 7.00.

As for `Cc1cc(-c2nsc3c(N4CCCCS4(=O)=O)cc(N4CCOC[C@H]4C)nc23)[nH]n1` [US20230295166, Compound 82], the pIC50 is over 7.00.
